According to the NIST ThermoML archive (doi:10.1021/je800077r):
± gives the expanded uncertainty stated by the source.

Tests used:
[1] = refractive index (Na D-line) (dimensionless); xn = mol fraction of the nth substance listed; settings: 101 kPa, Liquid, Standard Abbe refractometry
[2] = xn = mol fraction of the nth substance listed; settings: 101 kPa, Liquid; for speed of sound: Sing-around technique in a fixed-path interferometer; for mass density: Vibrating tube method

CCCCCCn1cc[n+](C)c1.F[P-](F)(F)(F)(F)F [1-hexyl-3-methylimidazolium hexafluorophosphate] + CCOC(C)=O
Settings	mass density, 293.15 K [kg/m3]	mass density, 298.15 K [kg/m3]	mass density, 303.15 K [kg/m3]	refractive index, 293.15 K	refractive index, 298.15 K	refractive index, 303.15 K	speed of sound, 293.15 K [m/s]	speed of sound, 298.15 K [m/s]	speed of sound, 303.15 K [m/s]
[1], x1 = 0.0506	–	–	–	1.38064 ± 0.00046	1.37838 ± 0.00056	1.37606 ± 0.0007	–	–	–
[1], x1 = 0.104	–	–	–	1.3874 ± 0.00044	1.38537 ± 0.00055	1.38312 ± 0.00071	–	–	–
[1], x1 = 0.1978	–	–	–	1.39645 ± 0.00045	1.39415 ± 0.00059	1.39194 ± 0.00073	–	–	–
[1], x1 = 0.2924	–	–	–	1.402 ± 0.00051	1.40007 ± 0.00059	1.39821 ± 0.00071	–	–	–
[1], x1 = 0.4549	–	–	–	1.40845 ± 0.00063	1.4069 ± 0.00065	1.40523 ± 0.00068	–	–	–
[1], x1 = 0.4974	–	–	–	1.40969 ± 0.00067	1.40821 ± 0.00068	1.40664 ± 0.0007	–	–	–
[1], x1 = 0.5904	–	–	–	1.41237 ± 0.00072	1.41083 ± 0.00076	1.40893 ± 0.00079	–	–	–
[1], x1 = 0.7015	–	–	–	1.41438 ± 0.00083	1.41296 ± 0.00083	1.4115 ± 0.00085	–	–	–
[1], x1 = 0.7926	–	–	–	1.41592 ± 0.0009	1.41446 ± 0.0009	1.41307 ± 0.00091	–	–	–
[1], x1 = 0.8941	–	–	–	1.41731 ± 0.00099	1.41594 ± 0.00099	1.41454 ± 0.00099	–	–	–
[1], x1 = 0.9459	–	–	–	1.41797 ± 0.001	1.41662 ± 0.001	1.41526 ± 0.001	–	–	–
[1], x1 = 1	–	–	–	1.41923 ± 0.0011	1.41787 ± 0.0011	1.41643 ± 0.0011	–	–	–
[2], x1 = 0.0506	952.6 ± 0.2	946.8 ± 0.2	941 ± 0.2	–	–	–	1185 ± 1	1163 ± 1	1142 ± 1
[2], x1 = 0.104	998.7 ± 0.2	993.2 ± 0.2	987.6 ± 0.2	–	–	–	1210 ± 2	1189 ± 2	1169 ± 2
[2], x1 = 0.1978	1063.8 ± 0.4	1058.6 ± 0.4	1053.4 ± 0.4	–	–	–	1252 ± 2	1233 ± 2	1215 ± 2
[2], x1 = 0.2924	1114.6 ± 0.7	1109.8 ± 0.7	1104.9 ± 0.7	–	–	–	1288 ± 2	1271 ± 2	1254 ± 2
[2], x1 = 0.4549	1179.7 ± 1.7	1175.2 ± 1.7	1170.5 ± 1.7	–	–	–	1335 ± 3	1320 ± 3	1305 ± 3
[2], x1 = 0.4974	1193.3 ± 2.1	1188.9 ± 2	1184.2 ± 2	–	–	–	1346 ± 3	1331 ± 3	1317 ± 3
[2], x1 = 0.5904	1219.5 ± 2.9	1215.2 ± 2.9	1210.7 ± 2.9	–	–	–	1366 ± 3	1352 ± 3	1338 ± 3
[2], x1 = 0.7015	1245.8 ± 4.2	1241.5 ± 4.2	1237.2 ± 4.2	–	–	–	1387 ± 4	1374 ± 4	1361 ± 4
[2], x1 = 0.7926	1263.8 ± 5.5	1259.8 ± 5.5	1255.6 ± 5.4	–	–	–	1403 ± 4	1390 ± 4	1378 ± 4
[2], x1 = 0.8941	1281.6 ± 7.2	1277.6 ± 7.1	1273.8 ± 7.1	–	–	–	1420 ± 5	1407 ± 5	1395 ± 5
[2], x1 = 0.9459	1289.8 ± 8.1	1285.8 ± 8.1	1282 ± 8	–	–	–	1429 ± 5	1415 ± 5	1403 ± 5
[2], x1 = 1	1297.9 ± 9.2	1293.7 ± 9.1	1289.6 ± 9.1	–	–	–	1438 ± 5	1424 ± 5	1411 ± 5

CCOC(C)=O [ethyl acetate] + CCCCCC
Settings	mass density, 293.15 K [kg/m3]	mass density, 298.15 K [kg/m3]	mass density, 303.15 K [kg/m3]	refractive index, 293.15 K	refractive index, 298.15 K	refractive index, 303.15 K	speed of sound, 293.15 K [m/s]	speed of sound, 298.15 K [m/s]	speed of sound, 303.15 K [m/s]
[1], x2 = 0	–	–	–	1.37241 ± 0.00061	1.36977 ± 0.00061	1.36712 ± 0.00062	–	–	–
[1], x2 = 0.0469	–	–	–	1.37193 ± 0.00063	1.36926 ± 0.00062	1.3666 ± 0.00061	–	–	–
[1], x2 = 0.0969	–	–	–	1.37157 ± 0.00063	1.3689 ± 0.00062	1.36622 ± 0.00062	–	–	–
[1], x2 = 0.1898	–	–	–	1.37105 ± 0.00064	1.36832 ± 0.00063	1.36559 ± 0.00062	–	–	–
[1], x2 = 0.2962	–	–	–	1.3706 ± 0.00066	1.36785 ± 0.00063	1.36513 ± 0.00062	–	–	–
[1], x2 = 0.3907	–	–	–	1.37053 ± 0.00065	1.36776 ± 0.00064	1.365 ± 0.00063	–	–	–
[1], x2 = 0.5028	–	–	–	1.37066 ± 0.00066	1.36789 ± 0.00065	1.36511 ± 0.00063	–	–	–
[1], x2 = 0.598	–	–	–	1.37101 ± 0.00067	1.36823 ± 0.00065	1.36547 ± 0.00063	–	–	–
[1], x2 = 0.6995	–	–	–	1.3718 ± 0.00067	1.36896 ± 0.00067	1.36611 ± 0.00066	–	–	–
[1], x2 = 0.803	–	–	–	1.37266 ± 0.00069	1.3698 ± 0.00068	1.36689 ± 0.00066	–	–	–
[1], x2 = 0.9005	–	–	–	1.37381 ± 0.00067	1.37096 ± 0.00068	1.36803 ± 0.00069	–	–	–
[1], x2 = 0.9514	–	–	–	1.3744 ± 0.00067	1.37157 ± 0.00068	1.36866 ± 0.00068	–	–	–
[2], x2 = 0	900.5 ± 0.1	894.4 ± 0.1	888.2 ± 0.1	–	–	–	1162 ± 1	1141 ± 1	1111 ± 1
[2], x2 = 0.0469	884.3 ± 0.2	878.2 ± 0.2	872.2 ± 0.2	–	–	–	1152 ± 1	1129 ± 1	1099 ± 1
[2], x2 = 0.0969	868 ± 0.2	862 ± 0.2	855.9 ± 0.2	–	–	–	1141 ± 1	1119 ± 1	1089 ± 1
[2], x2 = 0.1898	838.9 ± 0.2	833.1 ± 0.2	827.3 ± 0.2	–	–	–	1125 ± 1	1103 ± 1	1074 ± 1
[2], x2 = 0.2962	808.6 ± 0.2	803 ± 0.2	797.3 ± 0.2	–	–	–	1111 ± 1	1089 ± 1	1061 ± 1
[2], x2 = 0.3907	783.5 ± 0.2	778 ± 0.2	772.4 ± 0.2	–	–	–	1101 ± 1	1079 ± 1	1053 ± 1
[2], x2 = 0.5028	756 ± 0.2	750.7 ± 0.2	745.3 ± 0.2	–	–	–	1093 ± 1	1071 ± 1	1046 ± 1
[2], x2 = 0.598	734.5 ± 0.2	729.3 ± 0.2	724.1 ± 0.2	–	–	–	1090 ± 2	1067 ± 2	1042 ± 2
[2], x2 = 0.6995	713.1 ± 0.2	708.1 ± 0.2	703.1 ± 0.2	–	–	–	1088 ± 2	1066 ± 2	1041 ± 2
[2], x2 = 0.803	693.3 ± 0.2	688.4 ± 0.2	683.5 ± 0.2	–	–	–	1089 ± 2	1067 ± 2	1043 ± 2
[2], x2 = 0.9005	675.8 ± 0.2	671.1 ± 0.2	666.4 ± 0.2	–	–	–	1093 ± 2	1071 ± 2	1047 ± 2
[2], x2 = 0.9514	667.3 ± 0.3	662.7 ± 0.3	658.1 ± 0.3	–	–	–	1096 ± 2	1074 ± 2	1051 ± 2
